Earlier results as cited in patent US20020177579A1, “Extended release formulation of water-soluble drugs” (priority 2000, published 2002).
Structures can show the parent of a compound that is named as a salt.

Legend:
[1] = for Fraction Absorbed: in vivo

SMILES | Fraction Absorbed [1] | Solubility (in words) | further results
CCC(=O)O[C@@H](O[P@](=O)(CCCCc1ccccc1)CC(=O)N1C[C@H](C2CCCCC2)C[C@H]1C(=O)O)C(C)C [Fosinopril Sodium] | 36% | – | Solubility: 100 mg/mL
CNS(=O)(=O)Cc1ccc2[nH]cc(CCN(C)C)c2c1 [Sumatriptan Succinate] | 15% | “Readily | –
COc1ccc([C@@H]2Sc3ccccc3N(CCN(C)C)C(=O)[C@@H]2OC(C)=O)cc1 [Diltiazem hydrochloride, 1,5-benzothiazepin-4 (5H) one, 3-(acetyloxy)-5-[2-(dimethylamino)ethyl]-2,3-dihydro-2-(4-methoxyphenyl)-, monohydrochloride, (+)-cis-4] | – | – | absolute bioavailability ([1]; compared to intravenous administration): about 40%; solubility in 100% ethanol (100% ethanol): slightly soluble; solubility in benzene (benzene): not soluble; solubility in chloroform (chloroform): freely soluble; solubility in methanol (methanol): freely soluble; solubility in water (water): freely soluble
COCCc1ccc(OCC(O)CNC(C)C)cc1 (centres unmarked) [Metoprolol Succinate] | – | “Freely | –
CN1C2CCCC1CC(NC(=O)c1nn(C)c3ccccc13)C2 (centres unmarked) [Granisetron HCI] | ˜90% | “Readily | –
CCOC(=O)[C@H](CCc1ccccc1)N[C@@H](C)C(=O)N1Cc2ccccc2C[C@H]1C(=O)O [Quinapril HCI] | 60% | “Freely | –
CCOC(=O)[C@H](CCc1ccccc1)N[C@H]1CCc2ccccc2N(CC(=O)O)C1=O.Cl [Benazepril HCI] | 37% | – | Solubility: >100 mg/mL
